Reference: patent publication US9962388B2, “Pyrrolopyrimidine compounds used as TLR7 agonist” (priority 2014, dated 2018)
Like-named read-outs stand apart in the source and are kept apart here.

Legend:
Toll-like receptor 7 = Toll-like receptor 7 (Homo sapiens (Human), UniProt Q9NYK1); assay: Toll-like receptor 7 in vitro receptor binding activity screen (HEK-blue hTLR7 cell, alkaline phosphatase/Quanti-Blue readout); format: cell-based; details: for EC50: HEK-blue hTLR7 cell, read-out: TLR7 EC50
Sequence of Toll-like receptor 7 (Q9NYK1 27-1049): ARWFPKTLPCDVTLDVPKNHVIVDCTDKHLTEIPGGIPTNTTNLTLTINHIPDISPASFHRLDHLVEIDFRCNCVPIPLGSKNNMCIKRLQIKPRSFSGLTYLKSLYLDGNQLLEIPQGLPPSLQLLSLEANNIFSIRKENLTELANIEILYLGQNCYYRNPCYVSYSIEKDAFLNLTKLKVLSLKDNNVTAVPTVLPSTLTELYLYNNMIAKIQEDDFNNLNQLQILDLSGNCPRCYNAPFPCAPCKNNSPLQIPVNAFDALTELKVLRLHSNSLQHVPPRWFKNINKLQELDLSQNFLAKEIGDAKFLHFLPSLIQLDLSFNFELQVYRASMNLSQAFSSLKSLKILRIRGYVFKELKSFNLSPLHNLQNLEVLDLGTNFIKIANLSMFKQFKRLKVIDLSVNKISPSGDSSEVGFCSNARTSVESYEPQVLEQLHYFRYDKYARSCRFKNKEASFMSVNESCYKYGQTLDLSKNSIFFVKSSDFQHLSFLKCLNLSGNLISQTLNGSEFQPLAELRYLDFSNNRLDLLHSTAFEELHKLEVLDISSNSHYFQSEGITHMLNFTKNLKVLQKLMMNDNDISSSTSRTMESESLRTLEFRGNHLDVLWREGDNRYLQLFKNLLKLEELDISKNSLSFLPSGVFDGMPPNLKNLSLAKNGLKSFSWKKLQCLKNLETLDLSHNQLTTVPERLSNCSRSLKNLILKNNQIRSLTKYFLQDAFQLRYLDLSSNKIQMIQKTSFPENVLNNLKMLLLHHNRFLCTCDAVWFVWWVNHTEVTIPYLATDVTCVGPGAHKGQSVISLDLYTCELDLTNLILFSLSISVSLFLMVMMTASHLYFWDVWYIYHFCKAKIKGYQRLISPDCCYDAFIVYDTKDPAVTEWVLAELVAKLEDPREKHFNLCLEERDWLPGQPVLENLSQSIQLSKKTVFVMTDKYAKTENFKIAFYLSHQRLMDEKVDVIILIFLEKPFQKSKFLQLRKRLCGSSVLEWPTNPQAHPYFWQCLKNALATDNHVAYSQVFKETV
Description: (§1) Toll-Like Receptor 7 and Toll-Like Receptor 8 In Vitro Receptor Binding Activity Screen
(§2) HEK-blue hTLR7 cell and HEK-blue hTLR8 cell (available from InvivoGen)
(§3) 1. Preparation of 96-well compound plate:
(§4) The compounds were gradient diluted with DMSO in 3-fold using liquid work station POD starting at a concentration of 10 mmol/L and 10 points were diluted (2nd column to 11th column, and each point was duplicated). At 12th column, 1 μL of 5 mg/mL positive compound R848 was added as positive control; and at 1st column, 1 μL of DMSO was added as negative control. Each well contained 1 μL of DMSO.
(§5) 2. The cells in culture flask were collected and the cell density was diluted to 250,000 cells/mL.
(§6) 3. 200 μL (50,000 cells/well) of cell suspension was added into prepared compound plate and the final concentration of DMSO in each well was 0.5%.
(§7) 4. The culture plates containing cells and the compounds were incubated in CO2 incubator for 24 h at 37° C., 5% CO2.
(§8) 5. After 24 h incubation, 20 μL of supernatant was removed from each well to a 96-well transparent assay plate. To each well of the assay plate was added 180 μL of Quanti-Blue reagent and the plate was incubated in an incubator at 37° C., 5% CO2 for 1 h.
(§9) 6. After 1 h, the content of alkaline phosphatase in 20 μL of supernatant was determined using Microplate Reader OD650.
(§10) 7. EC50 of each compound was obtained with Prism software.

Toll-like receptor 8 = Toll-like receptor 8 (Homo sapiens (Human), UniProt Q9NR97); assay: Toll-like receptor 8 in vitro receptor binding activity screen (HEK-blue hTLR8 cell, alkaline phosphatase/Quanti-Blue readout); format: cell-based; details: for EC50: HEK-blue hTLR8 cell, head-to-head test, read-out: TLR8 EC50
Sequence of Toll-like receptor 8 (Q9NR97 27-1041): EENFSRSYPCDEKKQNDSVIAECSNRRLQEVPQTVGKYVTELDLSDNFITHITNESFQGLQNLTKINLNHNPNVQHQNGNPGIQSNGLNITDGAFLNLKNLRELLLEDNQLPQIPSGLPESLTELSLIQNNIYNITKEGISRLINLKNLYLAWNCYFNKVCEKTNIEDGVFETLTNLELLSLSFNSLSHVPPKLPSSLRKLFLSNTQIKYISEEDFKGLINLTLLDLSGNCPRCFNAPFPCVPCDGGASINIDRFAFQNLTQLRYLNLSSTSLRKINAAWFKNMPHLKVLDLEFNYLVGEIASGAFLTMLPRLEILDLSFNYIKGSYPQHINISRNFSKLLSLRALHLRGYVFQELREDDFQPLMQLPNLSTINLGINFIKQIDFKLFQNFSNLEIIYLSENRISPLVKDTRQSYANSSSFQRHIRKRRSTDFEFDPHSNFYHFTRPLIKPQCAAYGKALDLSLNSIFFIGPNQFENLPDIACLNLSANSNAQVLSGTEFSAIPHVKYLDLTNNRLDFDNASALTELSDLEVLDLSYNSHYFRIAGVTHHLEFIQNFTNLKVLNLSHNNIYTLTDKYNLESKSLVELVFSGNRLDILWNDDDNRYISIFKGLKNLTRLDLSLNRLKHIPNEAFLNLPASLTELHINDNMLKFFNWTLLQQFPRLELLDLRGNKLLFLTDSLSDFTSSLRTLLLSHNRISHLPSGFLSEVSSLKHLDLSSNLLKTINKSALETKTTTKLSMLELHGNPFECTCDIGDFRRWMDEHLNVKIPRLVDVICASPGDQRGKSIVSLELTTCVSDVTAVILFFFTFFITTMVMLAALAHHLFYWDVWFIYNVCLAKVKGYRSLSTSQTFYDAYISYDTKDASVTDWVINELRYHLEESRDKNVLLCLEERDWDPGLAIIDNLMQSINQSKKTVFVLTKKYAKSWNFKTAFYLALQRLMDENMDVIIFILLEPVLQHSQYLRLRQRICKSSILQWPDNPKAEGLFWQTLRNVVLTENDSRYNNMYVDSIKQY
Description: as §1, §2, §3, §4, §5, §6, §7, §8, §9, §10

[1] = system: human peripheral blood mononuclear cells (PBMC); assay: Peripheral blood mononuclear cell assay (cytokine induction, CBA); format: cell-based; details: for minimal effective concentration: Homo sapiens, read-out: INF-α MEC; for minimal effective concentration / TNF-α MEC: 24 h, human PBMC
Description: Peripheral Blood Mononuclear Cell Assay The purpose of this example is to determine the expression level of cytokines 24 h after stimulation to human peripheral blood mononuclear cells (PBMC) with the compounds. The cell supernatant was assayed without dilution and the levels of IFN-α and TNF-α were directly determined. The compound was firstly formulated into 20 mM DMSO stock solution and was gradient diluted with cell medium in 10-fold with the total number of 11 diluting points. The compounds in 9 diluting points (the highest concentration was 200 μmol/L) were added into 96-well plate with 50 μL in each well. Fresh human peripheral blood mononuclear cells were inoculated, with 150 μL in each well containing 450,000 cells. The cell culture plate was incubated in an incubator at 37° C., 5% CO2 for 24 h. After incubation, the culture plate was centrifuged at 1200 rpm for 5 min and the supernatant was collected and stored at −20° C. for determination. The determination of cytokine was performed using Cytometric Bead Array (CBA) of BD-Pharmingen on flow cytometer. Using the above determining method, the lowest drug concentration stimulating cytokine level which is over 3 times greater than the lowest detectable limit was designated as the MEC (Minimal Effective Concentration) value in the cytokine stimulating test.

in vivo = details: rat; for AUC(0-inf) / AUC(0-t) / Cmax / Vd / clearance / half-life / Mean plasma drug concentration: male, SD
Description: 12 male SD rats were divided into 4 groups with 3 SD rats in each group. […] […] Each rat with oral administration was collected for whole blood samples which were prepared into plasma 15, 30 min and 1, 2, 4, 8, 24 h continuously after administration.

duck hepatitis b virus = assay: In vivo pharmacodynamics in duckling model infected with hepatitis B virus; parameters: species or system Beijing ducks; details: for rebound of HBV-DNA replication: 20 mg/kg one administration every third day, 3 days after ceasing administration
Description: In Vivo Pharmacodynamics in Duckling Model Infected with Hepatitis B Virus
Experimental design and procedures: Beijing ducks of 1 day old were intravenously administered duck hepatitis b virus positive duck serum. After 7 days, the animals were administered according to grouping, 6 ducks in each group. Control group: normal saline. […] The samples were administered intragastricly: 20 mg/kg groups were administered once every third day (one administration every 3 days) and 5 mg/kg groups were administered once every day for 16 days. […] For control group infected with duck hepatitis b virus, solvent was used instead of drug. 7 days after infection, the blood was collected before administration (TO),8 days after administration (T8),16 days after administration (T16) and 3 day after ceasing administration (P3), and the duck serum was separated and frozen for storage. […] Duck serum DNA (DHBV-DNA) determination: different duck sera in a batch were determined for duck blood DHBV-DNA level with real time fluorescent quantitative PCR. Statistics analysis: paired and grouped analysis was used to calculate the significance of inhibition of drug on duck serum DHBV-DNA for assessment.

hepatitis b virus = assay: In vivo pharmacodynamics in HDI (hydrodynamic injection) mouse model infected with hepatitis b virus; details: 20 mg/kg intragastric, once a day, day 1 to day 7; FIGS. 1 and 2
Description: In Vivo Pharmacodynamics in HDI (Hydrodynamic Injection) Mouse Model Infected with Hepatitis b Virus
Experimental Design and Procedures:
Route: intragastric administration
Administration time: day 1 to day 7, 7 days in total
At day 1, 3, 5 and 7, plasma samples were collected 4 h after administration; and at day 7, liver sample was collected 4 h after administration.

[2] = 5 mg/kg intragastric once every day for 16 days, P3
[3] = 5 mg/kg intragastric once every day for 16 days, T8
[4] = 20 mg/kg intragastric once every third day, P3 (3 days after ceasing administration)
[5] = 20 mg/kg intragastric once every third day, T8 (8 days after administration)
[6] = 20 mg/kg intragastric once every third day, T16 (16 days after administration)

SMILES: CCCCOc1nc(N)c2[nH]cc(Cc3ccc(CN4CCCC4)cc3)c2n1 [Example 21, 2-butoxy-7-(4-(pyrrolidine-1-ylmethyl)benzyl)-5H-pyrrolo[3,2-d]pyrimidine-4-amine]
- EC50 (Toll-like receptor 7; 24 h): 100 to 1000 nM
- EC50 (Toll-like receptor 7; head-to-head test): 160 nM
- in vitro receptor binding activity to Toll-like receptor 7 compared with GS-9620 (Toll-like receptor 7; versus control GS-9620): higher
- EC50 (Toll-like receptor 8): 11.6 µM
- in vitro receptor binding activity to Toll-like receptor 8 compared with GS-9620 (Toll-like receptor 8; versus control GS-9620): lower
- minimal effective concentration ([1]; PBMC, Minimal Effective Concentration): 1e-05 to 0.001 µM
- minimal effective concentration ([1]; PBMC, head-to-head test): 0.005 µM
- TNF-α inducing activity compared with GS-9620 ([1]; PBMC, versus control GS-9620): comparable
- in vitro IFN-α inducing activity compared with GS-9620 ([1]; PBMC, versus control GS-9620): higher
- TNF-α MEC ([1]; head-to-head test): 500 nM
- AUC(0-inf) (in vivo; iv, 1 mg/kg): 0.676 µM·h
- AUC(0-t) (in vivo; iv, 1 mg/kg): 0.641 µM·h
- Cmax (in vivo; iv, 1 mg/kg): 478 nM
- Vd (in vivo; iv, 1 mg/kg): 29 L/kg
- clearance (in vivo; iv, 1 mg/kg): 65.8 mL/min/kg
- half-life (in vivo; iv, 1 mg/kg): 346 min
- Mean plasma drug concentration (in vivo; iv, 1 mg/kg, 0.083 h): 318 nM
- Mean plasma drug concentration (in vivo; iv, 1 mg/kg, 0.25 h): 141 nM
- Mean plasma drug concentration (in vivo; iv, 1 mg/kg, 0.5 h): 109 nM
- Mean plasma drug concentration (in vivo; iv, 1 mg/kg, 1 h): 74.3 nM
- Mean plasma drug concentration (in vivo; iv, 1 mg/kg, 2 h): 48.9 nM
- Mean plasma drug concentration (in vivo; iv, 1 mg/kg, 4 h): 37.7 nM
- Mean plasma drug concentration (in vivo; iv, 1 mg/kg, 8 h): 31.6 nM
- Mean plasma drug concentration (in vivo; iv, 1 mg/kg, 24 h): 3.94 nM
- AUC(0-inf) (in vivo; po, 5 mg/kg): 0.749 µM·h
- AUC(0-t) (in vivo; po, 5 mg/kg): 0.699 µM·h
- Cmax (in vivo; po, 5 mg/kg): 186 nM
- half-life (in vivo; po, 5 mg/kg): 374 min
- Mean plasma drug concentration (in vivo; po, 5 mg/kg, 0.25 h): 69.4 nM
- Mean plasma drug concentration (in vivo; po, 5 mg/kg, 0.5 h): 41.6 nM
- Mean plasma drug concentration (in vivo; po, 5 mg/kg, 1 h): 36.4 nM
- Mean plasma drug concentration (in vivo; po, 5 mg/kg, 2 h): 186 nM
- Mean plasma drug concentration (in vivo; po, 5 mg/kg, 4 h): 51.2 nM
- Mean plasma drug concentration (in vivo; po, 5 mg/kg, 8 h): 23.9 nM
- Mean plasma drug concentration (in vivo; po, 5 mg/kg, 24 h): 5.25 nM
- exposure compared with GS-9620 (in vivo): higher exposure
- half-life compared with GS-9620 (in vivo): longer half-life
- Duck serum HBV-DNA inhibition % (duck hepatitis b virus; [2]): 95.55 ± 3.56 %
- Duck serum HBV-DNA inhibition % (duck hepatitis b virus; [3]): 99.96 ± 0.06 %
- inhibition rate compared with GS-9620 (duck hepatitis b virus; 5 mg/kg, one administration everyday): significant advantage
- Duck serum HBV-DNA inhibition % (duck hepatitis b virus; [4]): 92.81 ± 13.79 %
- Duck serum HBV-DNA inhibition % (duck hepatitis b virus; [5]): 100.0 ± 0 %
- Duck serum HBV-DNA inhibition % (duck hepatitis b virus; [6]): 98.80 ± 1.84 %
- rebound of HBV-DNA replication (duck hepatitis b virus): no rebound
- inhibition rate compared with GS-9620 (duck hepatitis b virus; 20 mg/kg, one administration every third day): roughly comparable
- efficacy by HBV copy numbers in plasma and liver compared with GS-9620 (hepatitis b virus): better efficacy

SMILES: CCCCOc1nc(N)c2c(n1)N(Cc1cccc(CN3CCCC3)c1)CC(=O)N2 [GS-9620, reference compound]
- EC50 (Toll-like receptor 7; head-to-head test): 517 nM
- EC50 (Toll-like receptor 8): 7.87 µM
- minimal effective concentration ([1]; PBMC, head-to-head test): 0.05 µM
- TNF-α MEC ([1]; head-to-head test): 500 nM
- half-life (in vivo; 1 mg/kg, IV 1 mpk, read-out: T½ (converted)): 154 min
- half-life (in vivo; 5 mg/kg, PO 5 mpk, read-out: T½ (converted)): 134 min
- AUC(0-inf) (in vivo; iv, 1 mg/kg): 0.201 µM·h
- AUC(0-t) (in vivo; iv, 1 mg/kg): 0.185 µM·h
- Cmax (in vivo; iv, 1 mg/kg): 220 nM
- Vd (in vivo; iv, 1 mg/kg): 32.8 L/kg
- clearance (in vivo; iv, 1 mg/kg): 205 mL/min/kg
- Mean plasma drug concentration (in vivo; iv, 1 mg/kg, 0.083 h): 170 nM
- Mean plasma drug concentration (in vivo; iv, 1 mg/kg, 0.25 h): 102 nM
- Mean plasma drug concentration (in vivo; iv, 1 mg/kg, 0.5 h): 65.4 nM
- Mean plasma drug concentration (in vivo; iv, 1 mg/kg, 1 h): 48.1 nM
- Mean plasma drug concentration (in vivo; iv, 1 mg/kg, 2 h): 21.6 nM
- Mean plasma drug concentration (in vivo; iv, 1 mg/kg, 4 h): 13 nM
- Mean plasma drug concentration (in vivo; iv, 1 mg/kg, 8 h): 4.17 nM
- AUC(0-inf) (in vivo; po, 5 mg/kg): 0.359 µM·h
- AUC(0-t) (in vivo; po, 5 mg/kg): 0.316 µM·h
- Cmax (in vivo; po, 5 mg/kg): 164 nM
- Mean plasma drug concentration (in vivo; po, 5 mg/kg, 0.25 h): 56.3 nM
- Mean plasma drug concentration (in vivo; po, 5 mg/kg, 0.5 h): 33.2 nM
- Mean plasma drug concentration (in vivo; po, 5 mg/kg, 1 h): 83.4 nM
- Mean plasma drug concentration (in vivo; po, 5 mg/kg, 2 h): 136 nM
- Mean plasma drug concentration (in vivo; po, 5 mg/kg, 4 h): 16.7 nM
- Mean plasma drug concentration (in vivo; po, 5 mg/kg, 8 h): 9.49 nM
- Duck serum HBV-DNA inhibition % (duck hepatitis b virus; [2]): 70.60 ± 47.66%
- Duck serum HBV-DNA inhibition % (duck hepatitis b virus; [3]): 98.66 ± 2.75 %
- Duck serum HBV-DNA inhibition % (duck hepatitis b virus; 5 mg/kg intragastric once every day for 16 days, T16): 78.02 ± 51.69%
- Duck serum HBV-DNA inhibition % (duck hepatitis b virus; [4]): −132.97 ± 352.35%
- Duck serum HBV-DNA inhibition % (duck hepatitis b virus; [5]): 99.13 ± 1.83 %
- Duck serum HBV-DNA inhibition % (duck hepatitis b virus; [6]): 98.26 ± 1.50 %
- rebound of HBV-DNA replication (duck hepatitis b virus): rebound of HBV-DNA replication
